# Assay results from article PMC11322497 (Frontiers in Pharmacology, 2024).
# Tested on: high fat diet (HFD) rabbit model of metabolic-associated steatohepatitis (MASH)
# Experiment: HFD rabbit study, prolonged 4-week treatment: liver histomorphology and immunohistochemistry
# Assay type: in vivo, New Zealand White rabbits
# Conditions: weeks 9–12; for Ballooning score 0 (no ballooning), share of animals / Ballooning score 1 (few ballooned cells), share of animals / Ballooning score 2 (prominent ballooning), share of animals / Fibrosis (Ishak Score) 0, share of animals / Fibrosis (Ishak Score) 1, share of animals / Fibrosis (Ishak Score) 2, share of animals / Fibrosis (Ishak Score) 3, share of animals / Fibrosis (Ishak Score) 4, share of animals / Fibrosis (Ishak Score) 5, share of animals / Inflammation score 0 (no foci), share of animals / Inflammation score 1 (<2 foci), share of animals / Inflammation score 2 (2–4 foci), share of animals / Inflammation score 3 (> 4 foci), share of animals: n=7
# Procedure: After 1 week (W) of RD, the animals (n = 44) were randomly assigned to the following groups (Table 1B): • Control rabbits continued to receive a RD for 12 weeks and were treated with vehicle for 5 days a week (days 1–5, p.o.) during the last 4 weeks before culling (RD + 4W Veh group); • Rabbits received a HFD for 8 weeks and were culled (HFD 8W group); • Rabbits received a HFD for 12 weeks and were treated with vehicle for 5 days a week (days 1–5, p.o.) during the last 4 weeks before culling (HFD+4W Veh group); • Rabbits received a HFD for 12 weeks and were treated with GB1211 (0.3 mg/kg) for 5 days a week (days 1–5, p.o.) during the last 4 weeks before culling (HFD + 4W 0.3 mg group); • Rabbits received a HFD for 12 weeks and were treated with GB1211 (1.0 mg/kg) for 5 days a week (days 1–5, p.o.) during the last 4 weeks before culling (HFD + 4W 1.0 mg group); • Rabbits received a HFD for 12 weeks and were treated with GB1211 (5.0 mg/kg) for 5 days a week (days 1–5, p.o.) during the last 4 weeks before culling (HFD + 4W 5.0 mg group).
# Liver specimens were fixed in 10% buffered formalin (Sigma-Aldrich Corp., St. Louis, MO), paraffin embedded and sectioned at a thickness of 5 μm with a microtome. The slides were stained with hematoxylin and eosin (H&E; both Bio-Optica, Milan, Italy), following standard protocols for histological analysis, to evaluate the general morphology and tissue structure, and then analyzed to evaluate inflammation and […] using Giemsa and Masson’s trichrome staining, respectively. Briefly, deparaffinized and rehydrated sections were incubated with Giemsa (Bio-Optica) in distilled water at ratio 1:1 or with Masson’s trichrome (Bio-Optica), following the manufacturer’s instructions, as previously described ([Vignozzi et al., 2014]). To evaluate lipid accumulation, liver specimens were also cryosectioned at a thickness of 8 μm, fixed with 4% paraformaldehyde, treated for 2–5 min with isopropanol and stained with Oil Red O (Bio-Optica) for 20 min, following the manufacturer’s instructions.
# In liver, collagen content evaluation for fibrosis grade and quantification was conducted by staining using Picrosirius Red Stain kit (Bio-Optica), as per manufacturer’s instructions. Briefly, deparaffinized and rehydrated sections were incubated with the staining solution for 50 min, rinsed with the appropriate reagents and with distilled water, dehydrated through ascending alcohols and xylene, and mounted, as previously described ([Comeglio et al., 2017]).
# The expression of RAM11, galectin-3, and vimentin was evaluated by immunohistochemical analysis on 5 μm thick paraffin embedded liver sections. Briefly, deparaffinized and rehydrated sections were incubated overnight at 4°C with mouse monoclonal anti-RAM11 (1:80; Dako, Carpenteria, CA), mouse monoclonal anti-galectin-3 (1:100; Abcam, Cambridge, United Kingdom) or mouse monoclonal anti-vimentin (1:800; Santa Cruz Biotechnology, Dallas, TX) antibodies, followed by biotinylated anti-mouse secondary antibody (Millipore, Burlington, MA) and streptavidin-peroxidase complex (Millipore). The reaction product was developed with 3′,3′-diaminobenzidine tetrahydrochloride as chromogen (Merck KgaA, Darmstadt, Germany). Negative controls were performed avoiding primary antibody. Percentage of the sampled area for galectin-3 and vimentin staining was obtained on ×200 and ×40 original magnification slides, respectively, using ImageJ software on five fields for each slide. Semi-quantitative staining of percentage of the sampled area for Picrosirius Red, Oil Red O, galectin-3 and vimentin was obtained using open source Java-based ImageJ software (Fiji bundle, https://imagej.net/). All slides were evaluated blindly and photographed using a Nikon Microphot-FXA microscope (Nikon, Tokyo, Japan).
structure (smiles),measurement,setting,value
OC[C@H]1O[C@H](Sc2cncc(Br)c2)[C@H](O)[C@@H](n2cc(-c3cc(F)c(F)c(F)c3)nn2)[C@H]1O [selvigaltin],Picrosirius Red percentage of fibrosis area,"HFD rabbits, 0.3 mg and 5.0 mg dosages",only partially counteracted
same,"Ballooning score 0 (no ballooning), share of animals","HFD rabbits, 0.3 mg/kg p.o.",0.0%
same,"Ballooning score 1 (few ballooned cells), share of animals","HFD rabbits, 0.3 mg/kg p.o.",42.9%
same,"Ballooning score 2 (prominent ballooning), share of animals","HFD rabbits, 0.3 mg/kg p.o.",57.1%
same,"Fibrosis (Ishak Score) 0, share of animals","HFD rabbits, 0.3 mg/kg p.o.",0.0%
same,"Fibrosis (Ishak Score) 1, share of animals","HFD rabbits, 0.3 mg/kg p.o.",14.3%
same,"Fibrosis (Ishak Score) 2, share of animals","HFD rabbits, 0.3 mg/kg p.o.",0.0%
same,"Fibrosis (Ishak Score) 3, share of animals","HFD rabbits, 0.3 mg/kg p.o.",57.1%
same,"Fibrosis (Ishak Score) 4, share of animals","HFD rabbits, 0.3 mg/kg p.o.",28.6%
same,"Fibrosis (Ishak Score) 5, share of animals","HFD rabbits, 0.3 mg/kg p.o.",0.0%
same,"Inflammation score 0 (no foci), share of animals","HFD rabbits, 0.3 mg/kg p.o.",14.3%
same,"Inflammation score 1 (<2 foci), share of animals","HFD rabbits, 0.3 mg/kg p.o.",42.8%
same,"Inflammation score 2 (2–4 foci), share of animals","HFD rabbits, 0.3 mg/kg p.o.",42.8%
same,"Inflammation score 3 (> 4 foci), share of animals","HFD rabbits, 0.3 mg/kg p.o.",0.0%
same,"Ballooning score 0 (no ballooning), share of animals","HFD rabbits, 1.0 mg/kg p.o.",0.0%
same,"Ballooning score 1 (few ballooned cells), share of animals","HFD rabbits, 1.0 mg/kg p.o.",85.7%
same,"Ballooning score 2 (prominent ballooning), share of animals","HFD rabbits, 1.0 mg/kg p.o.",14.3%
same,"Fibrosis (Ishak Score) 0, share of animals","HFD rabbits, 1.0 mg/kg p.o.",0.0%
same,"Fibrosis (Ishak Score) 1, share of animals","HFD rabbits, 1.0 mg/kg p.o.",0.0%
same,"Fibrosis (Ishak Score) 2, share of animals","HFD rabbits, 1.0 mg/kg p.o.",85.7%
same,"Fibrosis (Ishak Score) 3, share of animals","HFD rabbits, 1.0 mg/kg p.o.",14.3%
same,"Fibrosis (Ishak Score) 4, share of animals","HFD rabbits, 1.0 mg/kg p.o.",0.0%
same,"Fibrosis (Ishak Score) 5, share of animals","HFD rabbits, 1.0 mg/kg p.o.",0.0%
same,"Inflammation score 0 (no foci), share of animals","HFD rabbits, 1.0 mg/kg p.o.",14.3%
same,"Inflammation score 1 (<2 foci), share of animals","HFD rabbits, 1.0 mg/kg p.o.",71.4%
same,"Inflammation score 2 (2–4 foci), share of animals","HFD rabbits, 1.0 mg/kg p.o.",14.3%
same,"Inflammation score 3 (> 4 foci), share of animals","HFD rabbits, 1.0 mg/kg p.o.",0.0%
same,Liver steatosis (Oil Red O staining),"HFD rabbits, 1.0 mg/kg, not significantly different from controls",mild beneficial effect
same,Picrosirius Red percentage of fibrosis area,"HFD rabbits, 1.0 mg/kg, p < 0.05 vs. HFD + Veh",normalized
same,Vimentin positivity in liver,"HFD rabbits, 1.0 mg/kg, p = 0.072 vs. HFD + Veh",borderline reduction
same,"Ballooning score 0 (no ballooning), share of animals","HFD rabbits, 5.0 mg/kg p.o.",0.0%
same,"Ballooning score 1 (few ballooned cells), share of animals","HFD rabbits, 5.0 mg/kg p.o.",57.1%
same,"Ballooning score 2 (prominent ballooning), share of animals","HFD rabbits, 5.0 mg/kg p.o.",42.9%
same,"Fibrosis (Ishak Score) 0, share of animals","HFD rabbits, 5.0 mg/kg p.o.",0.0%
same,"Fibrosis (Ishak Score) 1, share of animals","HFD rabbits, 5.0 mg/kg p.o.",0.0%
same,"Fibrosis (Ishak Score) 2, share of animals","HFD rabbits, 5.0 mg/kg p.o.",42.8%
same,"Fibrosis (Ishak Score) 3, share of animals","HFD rabbits, 5.0 mg/kg p.o.",42.8%
same,"Fibrosis (Ishak Score) 4, share of animals","HFD rabbits, 5.0 mg/kg p.o.",14.3%
same,"Fibrosis (Ishak Score) 5, share of animals","HFD rabbits, 5.0 mg/kg p.o.",0.0%
same,"Inflammation score 0 (no foci), share of animals","HFD rabbits, 5.0 mg/kg p.o.",0.0%
same,"Inflammation score 1 (<2 foci), share of animals","HFD rabbits, 5.0 mg/kg p.o.",100.0%
same,"Inflammation score 2 (2–4 foci), share of animals","HFD rabbits, 5.0 mg/kg p.o.",0.0%
same,"Inflammation score 3 (> 4 foci), share of animals","HFD rabbits, 5.0 mg/kg p.o.",0.0%
same,Liver steatosis (Oil Red O staining),"HFD rabbits, 0.3, 1.0, 5.0 mg/kg",without significant differences among HFD groups
same,Galectin-3 immunohistochemical positivity in liver,"HFD rabbits, all selvigaltin treatments (0.3, 1.0, 5.0 mg/kg)",only partially abated
